The test addresses T1, human full-length MKNK1 (Homo sapiens, UniProt Q9BUB5, T385D).
T1 construct: purchased Carna Biosciences 02-145; host or cells: insect cells (baculovirus expression system)
In words: MKNK1 kinase high ATP assay (TR-FRET). It counts as biochemical. The note with it: high ATP (2 mM final), 15 min preincubation with enzyme, GST-MKNK1 (T344D). Here is the method:
MKNK1-inhibitory activity at high ATP of compounds of the present invention after their preincubation with MKNK1 was quantified employing the TR-FRET-based MKNK1 high ATP assay as described in the following paragraphs.
A recombinant fusion protein of Glutathione-S-Transferase (GST, N-terminally) and human full-length MKNK1 (amino acids 1-424 and T344D of accession number BAA 19885.1), expressed in insect cells using baculovirus expression system and purified via glutathione sepharose affinity chromatography, was purchased from Carna Biosciences (product no 02-145) and used as enzyme. As substrate for the kinase reaction the biotinylated peptide biotin-Ahx-IKKRKLTRRKSLKG (C-terminus in amide form) was used, which can be purchased e.g. from the company Biosyntan (Berlin-Buch, Germany).
For the assay 50 nL of a 100 fold concentrated solution of the test compound in DMSO was pipetted into a black low volume 384 well microtiter plate (Greiner Bio-One, Frickenhausen, Germany), 2 μL of a solution of MKNK1 in aqueous assay buffer [50 mM HEPES pH 7.5, 5 mM MgCl2, 1.0 mM dithiothreitol, 0.005% (v/v) Nonidet-P40 (Sigma)] was added and the mixture was incubated for 15 min at 22° C. to allow pre-binding of the test compounds to the enzyme before the start of the kinase reaction. Then the kinase reaction was started by the addition of 3 μL of a solution of adenosine-tri-phosphate (ATP, 3.3 mM=> final conc. in the 5 μL assay volume is 2 mM) and substrate (0.1 μM=> final conc. in the 5 μL assay volume is 0.06 μM) in assay buffer and the resulting mixture was incubated for a reaction time of 30 min at 22° C. The concentration of MKNK1 was adjusted depending of the activity of the enzyme lot and was chosen appropriate to have the assay in the linear range, typical concentrations were in the range of 0.003 μg/mL. The reaction was stopped by the addition of 5 μL of a solution of TR-FRET detection reagents (5 nM streptavidine-XL665 [Cisbio Bioassays, Codolet, France] and 1 nM anti-ribosomal protein S6 (pSer236)-antibody from Invitrogen [#44921G] and 1 nM LANCE EU-W1024 labeled ProteinG [Perkin-Elmer, product no. AD0071]) in an aqueous EDTA-solution (100 mM EDTA, 0.1% (w/v) bovine serum albumin in 50 mM HEPES pH 7.5).
The resulting mixture was incubated for 1 h at 22° C. to allow the formation of complex between the phosphorylated biotinylated peptide and the detection reagents. Subsequently the amount of phosphorylated substrate was evaluated by measurement of the resonance energy transfer from the Eu-chelate to the streptavidine-XL. Therefore, the fluorescence emissions at 620 nm and 665 nm after excitation at 350 nm were measured in a TR-FRET reader, e.g. a Rubystar (BMG Labtechnologies, Offenburg, Germany) or a Viewlux (Perkin-Elmer). The ratio of the emissions at 665 nm and at […] was taken as the measure for the amount of phosphorylated substrate. The data were normalised (enzyme reaction without inhibitor=0% inhibition, all other assay components but no enzyme=100% inhibition).
Background: TR-FRET usually uses a lanthanide donor and a delayed reading to cut background.

pIC50: −log10 of the molar value.

T1 sequence (Q9BUB5 1-424 isoform Q9BUB5-2 T344D): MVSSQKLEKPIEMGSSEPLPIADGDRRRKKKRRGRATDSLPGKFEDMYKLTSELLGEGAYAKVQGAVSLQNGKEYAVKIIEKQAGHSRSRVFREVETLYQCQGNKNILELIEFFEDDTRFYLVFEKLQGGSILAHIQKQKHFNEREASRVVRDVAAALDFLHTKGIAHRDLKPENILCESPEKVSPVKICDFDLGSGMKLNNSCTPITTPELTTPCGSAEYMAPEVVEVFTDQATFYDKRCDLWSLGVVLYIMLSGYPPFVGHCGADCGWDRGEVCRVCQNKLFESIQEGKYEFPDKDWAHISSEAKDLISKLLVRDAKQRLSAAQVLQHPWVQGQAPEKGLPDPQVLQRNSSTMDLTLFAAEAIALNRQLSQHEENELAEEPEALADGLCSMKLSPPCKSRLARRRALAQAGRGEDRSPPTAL

`CN(CC(C)(C)O)C(=O)[C@H]1CCc2c(sc3ncnc(Nc4cc5cn[nH]c5cn4)c23)C1` [Example 47, (7S)—N-(2-Hydroxy-2-methylpropyl)-N-methyl-4-(1H-pyrazolo[3,4-c]pyridin-5-ylamino)-5,6,7,8-tetrahydro[1]benzothieno[2,3-d]pyrimidine-7-carboxamide] had a pIC50 of 7.95. In turn, `COc1nc2[nH]ncc2cc1Nc1ncnc2sc3c(c12)CC[C@H](C(=O)N1CCC1)C3` [Example 35, Azetidin-1-yl{(7S)-4-[(6-methoxy-1H-pyrazolo[3,4-b]pyridin-5-yl)amino]-5,6,7,8-tetrahydro[1]benzothieno[2,3-d]pyrimidin-7-yl}methanone] had a negative-log IC50 (pIC50) of 8.66.

For `O=C(c1[nH]c2ncnc(Nc3cnc4[nH]ncc4c3)c2c1Br)N1CCOCC1` [Example 74, [5-Bromo-4-(1H-pyrazolo[3,4-b]pyridin-5-ylamino)-7H-pyrrolo[2,3-d]pyrimidin-6-yl](morpholin-4-yl)methanone], the negative logarithm of the IC50 (pIC50) was 6.85. In turn, `COc1nc2[nH]ncc2cc1Nc1ncnc2sc3c(c12)CC[C@H](C(=O)N1C[C@@H](C)O[C@@H](C)C1)C3` [Example 36, [(2R,6S)-2,6-Dimethylmorpholin-4-yl]{(7S)-4-[(6-methoxy-1H-pyrazolo[3,4-b]pyridin-5-yl)amino]-5,6,7,8-tetrahydro[1]benzothieno[2,3-d]pyrimidin-7-yl}methanone] gave a pIC50 of 9.10.

In turn, `CCc1c[nH]c2ncnc(Nc3cc4cn[nH]c4cn3)c12` [Example 6, N-(5-Ethyl-7H-pyrrolo[2,3-d]pyrimidin-4-yl)-1H-pyrazolo[3,4-c]pyridin-5-amine] gave a pIC50 of 8.14.

The molecule `O=C(O)c1[nH]c2ncnc(Nc3cc4cn[nH]c4cn3)c2c1Br` [Example 14, 5-Bromo-4-(1H-pyrazolo[3,4-c]pyridin-5-ylamino)-7H-pyrrolo[2,3-d]pyrimidine-6-carboxylic acid] gave a negative logarithm of the IC50 (pIC50) of 8.55. To `COc1nc2[nH]ncc2cc1Nc1ncnc2sc3c(c12)CC[C@H](C(=O)N1CCOC[C@@H]1C)C3` [Example 45] belongs 9.15. Consider `COc1nc2[nH]ncc2cc1Nc1ncnc2sc3c(c12)CC[C@H](C(=O)N1CC[C@@H](N(C)C)C1)C3` [Example 110, [(3R)-3-(Dimethylamino)pyrrolidin-1-yl]{(7S)-4-[(6-methoxy-1H-pyrazolo[3,4-b]pyridin-5-yl)amino]-5,6,7,8-tetrahydro[1]benzothieno[2,3-d]pyrimidin-7-yl}methanone], for which the pIC50 was 9.40. Molecule `Cc1c[nH]c2ncnc(Nc3cc4cn[nH]c4cn3)c12` [Example 4, N-(5-Methyl-7H-pyrrolo[2,3-d]pyrimidin-4-yl)-1H-pyrazolo[3,4-c]pyridin-5-amine] showed a negative-log IC50 (pIC50) of 8.38. In turn, `COc1nc2[nH]ncc2cc1Nc1ncnc2sc3c(c12)CC[C@H](C(=O)N1CCOC[C@H]1C)C3` [Example 44] had a pIC50 of 9.05. Molecule `CN(CCC(F)(F)F)C(=O)[C@H]1CCc2c(sc3ncnc(Nc4cc5cn[nH]c5nc4O)c23)C1` [Example 139, (7S)-4-[(6-Hydroxy-1H-pyrazolo[3,4-b]pyridin-5-yl)amino]-N-methyl-N-(3,3,3-trifluoropropyl)-5,6,7,8-tetrahydro[1]benzothieno[2,3-d]pyrimidine-7-carboxamide] had a negative logarithm of the IC50 (pIC50) of 8.33. The molecule `COc1nc2[nH]ncc2cc1Nc1ncnc2sc(C(=O)N3CCCCC3)nc12` [Example 133, {7-[(6-Methoxy-1H-pyrazolo[3,4-b]pyridin-5-yl)amino][1,3]thiazolo[5,4-d]pyrimidin-2-yl}(piperidin-1-yl)methanone] showed a pIC50 of 6.82. Turning to `COCCN(C)C(=O)[C@H]1CCc2c(sc3ncnc(Nc4cc5cn[nH]c5cn4)c23)C1` [Example 57, (7S)—N-(2-Methoxyethyl)-N-methyl-4-(1H-pyrazolo[3,4-c]pyridin-5-ylamino)-5,6,7,8-tetrahydro[1]benzothieno[2,3-d]pyrimidine-7-carboxamide], the pIC50 is 7.82. Molecule `CN(C)C1CCN(C(=O)c2[nH]c3ncnc(Nc4cc5cn[nH]c5nc4O)c3c2Br)CC1` [Example 65] gave a negative logarithm of the IC50 (pIC50) of 8.55.

For `COc1nc2[nH]ncc2cc1Nc1ncnc2sc3c(c12)CC[C@H](C(=O)N(C)C(C)C)C3` [Example 37, (7S)-4-[(6-Methoxy-1H-pyrazolo[3,4-b]pyridin-5-yl)amino]-N-methyl-N-(propan-2-yl)-5,6,7,8-tetrahydro[1]benzothieno[2,3-d]pyrimidine-7-carboxamide], the pIC50 was 8.38. `CN(C)C(=O)CCN(C)C(=O)c1nc2c(Nc3cnc4[nH]ncc4c3)ncnc2s1` [Example 129, N-[3-(Dimethylamino)-3-oxopropyl]-N-methyl-7-(1H-pyrazolo[3,4-b]pyridin-5-ylamino)[1,3]thiazolo[5,4-d]pyrimidine-2-carboxamide] had a pIC50 of 5.37. In the case of `O=C(c1nc2c(Nc3cnc4[nH]ncc4c3)ncnc2s1)N1CCCCC1` [Example 126, Piperidin-1-yl[7-(1H-pyrazolo[3,4-b]pyridin-5-ylamino)[1,3]thiazolo[5,4-d]pyrimidin-2-yl]methanone], the pIC50 is 6.77. As for `CN(C)CCNC(=O)c1cc2c(Nc3cc4cn[nH]c4cn3)ncnc2[nH]1` [Example 22, N-[2-(Dimethylamino)ethyl]-4-(1H-pyrazolo[3,4-c]pyridin-5-ylamino)-7H-pyrrolo[2,3-d]pyrimidine-6-carboxamide], the pIC50 is 8.27. As for `CN(C)C(=O)C1CCc2c(sc3ncnc(Nc4cc5cn[nH]c5cn4)c23)C1` (racemic) [Example 28, (RS)—N,N-Dimethyl-4-(1H-pyrazolo[3,4-c]pyridin-5-ylamino)-5,6,7,8-tetrahydro[1]benzothieno[2,3-d]pyrimidine-7-carboxamide], the figure is 8.01. As for `O=C(c1[nH]c2ncnc(Nc3cc4cn[nH]c4cn3)c2c1Br)N1CCOCC1` [Example 71, [5-Bromo-4-(1H-pyrazolo[3,4-c]pyridin-5-ylamino)-7H-pyrrolo[2,3-d]pyrimidin-6-yl](morpholin-4-yl)methanone], the pIC50 is 7.36. Take `COc1nc2[nH]ncc2cc1Nc1ncnc2sc3c(c12)CC[C@H](C(=O)N1CC2(COC2)C1)C3` [Example 109]: the negative-log IC50 (pIC50) is 9.15. Compared with the last molecule, the pIC50 is 1.79 log units higher. As for `CN(C)C(=O)CCN(C)C(=O)c1nc2c(Nc3cc4cn[nH]c4cn3)ncnc2s1` [Example 137, N-[3-(Dimethylamino)-3-oxopropyl]-N-methyl-7-(1H-pyrazolo[3,4-c]pyridin-5-ylamino)[1,3]thiazolo[5,4-d]pyrimidine-2-carboxamide], the figure is 6.69; as for `O=C(c1[nH]c2ncnc(Nc3cnc4[nH]ncc4c3)c2c1Br)N1CCCCC1` [Example 61, [5-Bromo-4-(1H-pyrazolo[3,4-b]pyridin-5-ylamino)-7H-pyrrolo[2,3-d]pyrimidin-6-yl](piperidin-1-yl)methanone], 6.92; as for `CN(C)CCCN(C)C(=O)c1[nH]c2ncnc(Nc3cc4cn[nH]c4cn3)c2c1Br` [Example 119, 5-Bromo-N-[3-(dimethylamino)propyl]-N-methyl-4-(1H-pyrazolo[3,4-c]pyridin-5-ylamino)-7H-pyrrolo[2,3-d]pyrimidine-6-carboxamide], 7.17. To `CN(C)C1CCN(C(=O)[C@H]2CCc3c(sc4ncnc(Nc5cc6cn[nH]c6cn5)c34)C2)CC1` [Example 91, [4-(Dimethylamino)piperidin-1-yl][(7S)-4-(1H-pyrazolo[3,4-c]pyridin-5-ylamino)-5,6,7,8-tetrahydro[1]benzothieno[2,3-d]pyrimidin-7-yl]methanone] belongs 8.51.

In turn, `CN(C)CCN(C)C(=O)c1[nH]c2ncnc(Nc3cc4cn[nH]c4nc3O)c2c1Br` [Example 63, 5-Bromo-N-[2-(dimethylamino)ethyl]-4-[(6-hydroxy-1H-pyrazolo[3,4-b]pyridin-5-yl)amino]-N-methyl-7H-pyrrolo[2,3-d]pyrimidine-6-carboxamide] gave a pIC50 of 7.84.

As a reminder, the pIC50 is the IC50 on a negative log10 scale, so that one unit is a factor of ten.

Source of the values: patent US20160159789A1, “SUBSTITUTED PYRAZOLOPYRIDINES” (BAYER PHARMA AKTIENGESELLSCHAFT, priority 2013, published 2016).
